How the values were obtained:
[1] = test system: supercoiled DNA plasmid pBR322; assay: DNA cleavage assay (agarose gel electrophoresis); format: biochemical; details: for Form I (%) / Form II (%) / Form III (%): 3 h, 37 °C, 250 ng pDNA
Text: The gel electrophoresis separation of the supercoiled DNA plasmid pBR322 induced by prepared copper(II) complexes is shown in Figure 7. […] The cleavage activity of 4a and 4c increased remarkably with increasing concentration.
The DNA cleaving activities were also quantified using the “geneQUANT software” (Cleaver Scientific, UK). Data are expressed as percentage (%) expression of the amount of pDNA that has passed through the effect of the nuclease activity of the copper complex from the uncleaved supercoiled Form I to the cleaved Form II (open-circular pDNA) or Form III (linear pDNA) (Table 5). […] Therefore, each percentage can also be converted to the mass of pDNA turned to Form II or III. For example, for complex 4a at a 1 mM concentration, 41.2% of pDNA was cleaved to Form II, which is 103 ng of pDNA, or at a 3 mM concentration, 46.2% corresponds to 115.5 ng of pDNA. Quantification allows us to compare the specific complexes more precisely. […] Some aggregation might be present at higher concentrations, keeping the amount of reactive monomer at a lower level.
The ability of copper(II) complexes to cleave DNA was examined by following the conversion of supercoiled plasmid DNA (Form I) to the open-circular DNA (Form II) and/or linear DNA (forms using agarose gel electrophoresis to separate the cleavage products.
In general, 250 ng of the DNA plasmid pBBR 322 (in 25 mM TRIS-HCl buffer solution, pH 7.5) was treated with different concentrations (1 mM, 3 mM and 5 mM) of the copper(II) complex (dissolved in DMSO) for 3 h at 37 °C. After that, each reaction was quenched by adding 4 μL of a Smart Glow Loading Dye® (loading buffer solution with 0.01% Safe Green dye, 50% glycerol and 250 mM EDTA, pH 8.0) and the sample subjected to electrophoresis (MyGel Mini electrophoresis system®, Accuris, Edison, NJ, USA) on a 0.9% agarose gel containing TAE buffer (40 mM TRIS, 20 mM acetic acid and 1 mM EDTA) at a voltage of 55 V/40 mA for about 1.5 h. As a “running buffer”, TAE buffer (40 mM TRIS, 20 mM acetic acid and 1 mM EDTA) was used. The resulting gels were visualized with UV light and scanned by a mobile device, an Apple iPhone 11 cam 26 mm f1.8. DNA cleaving activities were quantified using the “geneQUANT software” (version 4.3.9, Cleaver Scientific, Rugby, UK).
In the following tables, the percentage (%) expression of the amount of pDNA that has passed through the effect of the nuclease activity of the copper complex from the uncleaved supercoiled form I to the cleaved form II (open circular pDNA) or form III (linear pDNA). Quantitative evaluation was performed using the […] (Cleaver Scientific, UK). V (tested sample) = 20 ul; c (pDNA) = 250 […]
Figure S2-1: The original gel scan: upper left lines 1 – 4 complex 4a (0 mM, 1 mM, 3mM, 5mM), upper lines 6 – 9 complex 4b (0 mM, 1 mM, 3mM, 5mM), lower lines 1 – 4 complex 4c (0 mM, 1 mM, 3mM, […]
(1 picture or pasted object on this page, not shown here)

A549 cells = assay: MTT cytotoxicity assay, A549; format: cell-based, human; details: 72 h
Experimental: The cytotoxicity study of the prepared copper(II) complexes was performed using the MTT assay on human cell lines—A549 (adenocarcinoma human alveolar basal epithelial cell line), HepG2 (human liver cancer cell line) and HEL (human lung fibroblast cell line, normal cells).
The cytotoxicity of the prepared copper(II) complexes in human cell lines was evaluated using the 3-(4,5-dimethylthiazol-2-yl)-2,5-diphenyltetrazolium bromide (MTT) assay following the protocol by Mosmann. Briefly, A549 (human lung epithelial cells, carcinoma), HepG2 (human liver epithelial cells, carcinoma) and HEL (human lung fibroblast cells, normal) cells were seeded in plastic 96-well plates at a density of 1.5–2 × 10^4 cells per well. […] After the treatment, the samples were washed with phosphate-buffered saline (PBS), followed by 4 h of incubation with 1 mg/mL of MTT. Subsequently, the MTT solution was removed, and the formed formazane solids were dissolved in dimethyl sulfoxide for 30 min. The photometric evaluation (at 540 nm and 690 nm) was carried out using an xMark™ Microplate Absorbance Spectrophotometer (Bio-Rad, Hercules, CA, USA) [88].
A549 (ATCC® CCL-185), HepG2 (ATCC® HB-8065) and HEL299 (ATCC® CCL-137) cells were obtained from Lambda Life (Bratislava, Slovakia). A549 cells were kept in Dulbecco’s Modified Eagle’s Medium (DMEM) supplemented with 10% fetal bovine serum (FBS) and 1% antibiotics (penicillin and streptomycin). HepG2 cells were kept in Williams medium supplemented with 10% fetal bovine serum (FBS) and 1% antibiotics (penicillin and streptomycin). HEL299 cells were kept in Minimum Essential Medium (MEM) supplemented with 10% fetal bovine serum (FBS), 1% antibiotics (penicillin and streptomycin) and 1% non-essential amino acids (NEAA). The cells were cultured in a humidified atmosphere of 5% CO2 at 37 °C. Once the cells reached approximately 80% confluence, they were harvested and subcultured after trypsin treatment.

Structure (SMILES) | mass of pDNA in Form I ([1]; complex 1 mM, of 250 ng pDNA) | mass of pDNA in Form II ([1]; complex 1 mM, of 250 ng pDNA) | mass of pDNA in Form I ([1]; complex 3 mM, of 250 ng pDNA) | mass of pDNA in Form II ([1]; complex 3 mM, of 250 ng pDNA) | mass of pDNA in Form I ([1]; complex 5 mM, of 250 ng pDNA) | mass of pDNA in Form II ([1]; complex 5 mM, of 250 ng pDNA) | Form I (%) ([1]; complex 1 × 10^−3 M) | Form II (%) ([1]; complex 1 × 10^−3 M) | Form III (%) ([1]; complex 1 × 10^−3 M) | Form I (%) ([1]; complex 3 × 10^−3 M) | Form II (%) ([1]; complex 3 × 10^−3 M) | Form III (%) ([1]; complex 3 × 10^−3 M) | Form I (%) ([1]; complex 5 × 10^−3 M) | Form II (%) ([1]; complex 5 × 10^−3 M) | Form III (%) ([1]; complex 5 × 10^−3 M) | IC50 (A549 cells) [µM] | mass of pDNA in Form III ([1]; complex 5 mM, of 250 ng pDNA) [ng]
COc1cccc(CN=Cc2ccccc2[O][Cu][O]c2ccccc2C=NCc2cccc(OC)c2)c1 [Complex 4b, [Cu (Sal-3-MeOBn)2]] | 146,25 ng | 103,75 ng | 140,5 ng | 109,5 ng | 120,5 ng | 129,5 ng | 58,5% | 41,5% | 0 | 56,2% | 43,8% | 0 | 48,2% | 51,8% | 0 | 127 ± 8.1 | 
COc1ccc(CN=Cc2ccccc2[O-])cc1.COc1ccc(CN=Cc2ccccc2[O-])cc1.[Cl-].[Cl-].[Cu+2].[Cu+2] [Complex 4c, [Cu2 (Sal-4-MeOBn)2 Cl2]] | 124,5 ng | 125,5 ng |  | 250 ng | 11,75 ng | 238,25 ng | 49,8% | 50,2% | 0 | 0% |  | 0 | 4,7% | 95,3% | 0 | 72 ± 6.5 | 
COc1ccccc1CN=Cc1ccccc1[O-].COc1ccccc1CN=Cc1ccccc1[O-].[Cl-].[Cl-].[Cu+2].[Cu+2] [Complex 4a, [Cu2 (Sal-2-MeOBn)2 Cl2]] | 147 ng | 103 ng | 134,5 ng | 115,5 ng |  |  | 58,8% | 41,2% | 0 | 53,8% | 46,2% | 0 | 0% | 0% |  | 66.4 ± 6.2 | 250

— article PMC12430429, “Synthesis, Structure, DNA/BSA Binding, DNA Cleaving, Cytotoxic and SOD Mimetic Activities of Copper(II) Complexes Derived from Methoxybenzylamine Schiff Base Ligands” (Molecules, 2025)
